Square brackets hold non-standard residues; d marks the D form. Peptide text beside a SMILES is read from it. * marks the point of attachment. ξ: configuration not given here. Dansyl = CN(C)c1cccc2c(S(=O)(=O)*)cccc12; ξL = CC(C)CC(N)C(=O)O
Test system: receptor labeled by the radioiodinated analogue of 1 (4, [125I]-YLFQPQRF-NH2); neuropeptide FF receptor
Assay: Competitive radioligand binding against 4 ([125I]Y8F-amide)
Conditions: mixture-based positional scanning; difference from averaged radioligand displacement of whole library (0); about 80 a.u. = 10-fold change in Ki

Row | Structure (SMILES) | Relative Binding Index (RBI) [a.u.]
1 | CCC(C)C(NC(=O)C(Cc1c[nH]c2ccccc12)NS(=O)(=O)c1cccc2c(N(C)C)cccc12)C(=O)NC(CCCNC(=N)N)C(N)=O (stereo not drawn) [Dansyl-WIR-amide] (Dansyl-Trp-Ile-Arg-NH2; configuration not given here) | 15
2 | CC(C)[C@H](NS(=O)(=O)c1cccc2c(N(C)C)cccc12)C(=O)N[C@@H](Cc1c[nH]c2ccccc12)C(=O)N[C@@H](CCCNC(=N)N)C(N)=O [Dansyl-VWR-amide] (Dansyl-Val-Trp-Arg-NH2) | 4
3 | CC(C)[C@H](NS(=O)(=O)c1cccc2c(N(C)C)cccc12)C(=O)N[C@@H](CCCCN)C(=O)N[C@@H](CCCNC(=N)N)C(N)=O [Dansyl-VKR-amide] (Dansyl-Val-Lys-Arg-NH2) | −7
4 | CN(C)c1cccc2c(S(=O)(=O)N[C@@H](Cc3c[nH]c4ccccc34)C(=O)N[C@@H](CCC(N)=O)C(=O)N[C@@H](CCCNC(=N)N)C(N)=O)cccc12 [Dansyl-WQR-amide] (Dansyl-Trp-Gln-Arg-NH2) | 22
5 | CN(C)c1cccc2c(S(=O)(=O)N3CCC[C@H]3C(=O)N[C@@H](CCC(=O)O)C(=O)N[C@@H](CCCNC(=N)N)C(N)=O)cccc12 [Dansyl-PER-amide] (Dansyl-Pro-Glu-Arg-NH2) | −48
6 | C[C@@H](O)[C@H](NS(=O)(=O)c1cccc2c(N(C)C)cccc12)C(=O)N[C@@H](CCC(N)=O)C(=O)N[C@@H](CCCNC(=N)N)C(N)=O [Dansyl-TQR-amide] (Dansyl-Thr-Gln-Arg-NH2) | 5
7 | CC(O)C(NC(=O)C(CCC(=O)O)NS(=O)(=O)c1cccc2c(N(C)C)cccc12)C(=O)NC(CCCNC(=N)N)C(N)=O (stereo not drawn) [Dansyl-ETR-amide] (Dansyl-Glu-Thr-Arg-NH2; configuration not given here) | 22
8 | CN(C)c1cccc2c(S(=O)(=O)N[C@@H](CC(=O)O)C(=O)N[C@@H](CC(=O)O)C(=O)N[C@@H](CCCNC(=N)N)C(N)=O)cccc12 [Dansyl-DDR-amide] (Dansyl-Asp-Asp-Arg-NH2) | −24
9 | CN(C)c1cccc2c(S(=O)(=O)N[C@@H](CCCNC(=N)N)C(=O)N[C@@H](CO)C(=O)N[C@@H](CCCNC(=N)N)C(N)=O)cccc12 [Dansyl-RSR-amide] (Dansyl-Arg-Ser-Arg-NH2) | 27
10 | CSCC[C@H](NC(=O)[C@H](CC(N)=O)NS(=O)(=O)c1cccc2c(N(C)C)cccc12)C(=O)N[C@@H](CCCNC(=N)N)C(N)=O [Dansyl-NMR-amide] (Dansyl-Asn-Met-Arg-NH2) | 13
11 | CC[C@H](C)[C@H](NS(=O)(=O)c1cccc2c(N(C)C)cccc12)C(=O)NCC(=O)N[C@@H](CCCNC(=N)N)C(N)=O [Dansyl-IGR-amide] (Dansyl-Ile-Gly-Arg-NH2) | −6
12 | C[C@H](NC(=O)[C@H](CCC(=O)O)NS(=O)(=O)c1cccc2c(N(C)C)cccc12)C(=O)N[C@@H](CCCNC(=N)N)C(N)=O [Dansyl-EAR-amide] (Dansyl-Glu-Ala-Arg-NH2) | −32
13 | CC[C@H](C)[C@H](NS(=O)(=O)c1cccc2c(N(C)C)cccc12)C(=O)N[C@@H](CC(N)=O)C(=O)N[C@@H](CCCNC(=N)N)C(N)=O [Dansyl-INR-amide] (Dansyl-Ile-Asn-Arg-NH2) | −10
14 | CN(C)c1cccc2c(S(=O)(=O)N[C@@H](CC(=O)O)C(=O)N3CCC[C@H]3C(=O)N[C@@H](CCCNC(=N)N)C(N)=O)cccc12 [Dansyl-DPR-amide] (Dansyl-Asp-Pro-Arg-NH2) | −2
15 | CN(C)c1cccc2c(S(=O)(=O)N[C@@H](CCCNC(=N)N)C(=O)N[C@@H](CC(N)=O)C(=O)N[C@@H](CCCNC(=N)N)C(N)=O)cccc12 [Dansyl-RNR-amide] (Dansyl-Arg-Asn-Arg-NH2) | 8
16 | CN(C)c1cccc2c(S(=O)(=O)N[C@@H](CCCCN)C(=O)N[C@@H](CCCNC(=N)N)C(=O)N[C@@H](CCCNC(=N)N)C(N)=O)cccc12 [Dansyl-KRR-amide] (Dansyl-Lys-Arg-Arg-NH2) | 23
17 | CC(C)C[C@H](NC(=O)[C@H](CC(C)C)NS(=O)(=O)c1cccc2c(N(C)C)cccc12)C(=O)N[C@@H](CCCNC(=N)N)C(N)=O [Dansyl-LLR-amide] | −40
18 | CN(C)c1cccc2c(S(=O)(=O)N[C@@H](Cc3ccccc3)C(=O)N3CCC[C@H]3C(=O)N[C@@H](CCCNC(=N)N)C(N)=O)cccc12 [Dansyl-FPR-amide] | 13
19 | CC(C)CC(NC(=O)[C@H](Cc1ccccc1)NS(=O)(=O)c1cccc2c(N(C)C)cccc12)C(=O)N[C@@H](CCCNC(=N)N)C(N)=O (stereo partly shown) [Dansyl-FLR-amide] (Dansyl-Phe-[ξL]-Arg-NH2) | 1
20 | CC(C)[C@H](NS(=O)(=O)c1cccc2c(N(C)C)cccc12)C(=O)N[C@@H](CC(N)=O)C(=O)N[C@@H](CCCNC(=N)N)C(N)=O [Dansyl-VNR-amide] (Dansyl-Val-Asn-Arg-NH2) | −3

Row | Structure (SMILES) | Relative Binding Index (RBI) [a.u.]
21 | CSCC[C@H](NC(=O)[C@H](Cc1ccccc1)NS(=O)(=O)c1cccc2c(N(C)C)cccc12)C(=O)N[C@@H](CCCNC(=N)N)C(N)=O [Dansyl-FMR-amide] (Dansyl-Phe-Met-Arg-NH2) | 9
22 | C[C@H](NC(=O)[C@H](Cc1c[nH]c2ccccc12)NS(=O)(=O)c1cccc2c(N(C)C)cccc12)C(=O)N[C@@H](CCCNC(=N)N)C(N)=O [Dansyl-WAR-amide] (Dansyl-Trp-Ala-Arg-NH2) | −40
23 | CN(C)c1cccc2c(S(=O)(=O)N[C@@H](Cc3cnc[nH]3)C(=O)N[C@@H](CCCCN)C(=O)N[C@@H](CCCNC(=N)N)C(N)=O)cccc12 [Dansyl-HKR-amide] (Dansyl-His-Lys-Arg-NH2) | 14
24 | CN(C)c1cccc2c(S(=O)(=O)N[C@@H](CO)C(=O)N3CCC[C@H]3C(=O)N[C@@H](CCCNC(=N)N)C(N)=O)cccc12 [Dansyl-SPR-amide] (Dansyl-Ser-Pro-Arg-NH2) | 20
25 | CN(C)c1cccc2c(S(=O)(=O)N[C@@H](Cc3ccc(O)cc3)C(=O)NCC(=O)N[C@@H](CCCNC(=N)N)C(N)=O)cccc12 [Dansyl-YGR-amide] (Dansyl-Tyr-Gly-Arg-NH2) | 12
26 | CC[C@H](C)[C@H](NS(=O)(=O)c1cccc2c(N(C)C)cccc12)C(=O)N[C@@H](CCC(=O)O)C(=O)N[C@@H](CCCNC(=N)N)C(N)=O [Dansyl-IER-amide] (Dansyl-Ile-Glu-Arg-NH2) | −11
27 | CC(C)[C@H](NC(=O)[C@H](CC(=O)O)NS(=O)(=O)c1cccc2c(N(C)C)cccc12)C(=O)N[C@@H](CCCNC(=N)N)C(N)=O [Dansyl-DVR-amide] (Dansyl-Asp-Val-Arg-NH2) | −10
28 | CN(C)c1cccc2c(S(=O)(=O)N[C@@H](CC(=O)O)C(=O)N[C@@H](Cc3c[nH]cn3)C(=O)N[C@@H](CCCNC(=N)N)C(N)=O)cccc12 [Dansyl-DHR-amide] (Dansyl-Asp-His-Arg-NH2) | −11
29 | CN(C)c1cccc2c(S(=O)(=O)NCC(=O)N[C@@H](Cc3ccc(O)cc3)C(=O)N[C@@H](CCCNC(=N)N)C(N)=O)cccc12 [Dansyl-GYR-amide] (Dansyl-Gly-Tyr-Arg-NH2) | 24
30 | CN(C)c1cccc2c(S(=O)(=O)N[C@@H](Cc3ccccc3)C(=O)N[C@@H](Cc3c[nH]c4ccccc34)C(=O)N[C@@H](CCCNC(=N)N)C(N)=O)cccc12 [Dansyl-FWR-amide] (Dansyl-Phe-Trp-Arg-NH2) | 18
31 | CC[C@H](C)[C@H](NC(=O)[C@H](CCCNC(=N)N)NS(=O)(=O)c1cccc2c(N(C)C)cccc12)C(=O)N[C@@H](CCCNC(=N)N)C(N)=O [Dansyl-RIR-amide] (Dansyl-Arg-Ile-Arg-NH2) | 13
32 | CC(C)[C@H](NC(=O)[C@@H](NS(=O)(=O)c1cccc2c(N(C)C)cccc12)[C@@H](C)O)C(=O)N[C@@H](CCCNC(=N)N)C(N)=O [Dansyl-TVR-amide] (Dansyl-Thr-Val-Arg-NH2) | −13
33 | CC(C)C[C@H](NC(=O)CNS(=O)(=O)c1cccc2c(N(C)C)cccc12)C(=O)N[C@@H](CCCNC(=N)N)C(N)=O [Dansyl-GLR-amide] (Dansyl-Gly-Leu-Arg-NH2) | 17
34 | C[C@H](NS(=O)(=O)c1cccc2c(N(C)C)cccc12)C(=O)NCC(=O)N[C@@H](CCCNC(=N)N)C(N)=O [Dansyl-AGR-amide] (Dansyl-Ala-Gly-Arg-NH2) | 18
35 | CN(C)c1cccc2c(S(=O)(=O)N[C@@H](CCCCN)C(=O)N[C@@H](CC(=O)O)C(=O)N[C@@H](CCCNC(=N)N)C(N)=O)cccc12 [Dansyl-KDR-amide] (Dansyl-Lys-Asp-Arg-NH2) | 7
36 | CN(C)c1cccc2c(S(=O)(=O)N[C@@H](CC(=O)O)C(=O)N[C@@H](Cc3ccc(O)cc3)C(=O)N[C@@H](CCCNC(=N)N)C(N)=O)cccc12 [Dansyl-DYR-amide] (Dansyl-Asp-Tyr-Arg-NH2) | −7
37 | CC(C)[C@H](NS(=O)(=O)c1cccc2c(N(C)C)cccc12)C(=O)N[C@@H](CCC(=O)O)C(=O)N[C@@H](CCCNC(=N)N)C(N)=O [Dansyl-VER-amide] (Dansyl-Val-Glu-Arg-NH2) | −4
38 | CC[C@H](C)[C@H](NC(=O)[C@H](Cc1ccc(O)cc1)NS(=O)(=O)c1cccc2c(N(C)C)cccc12)C(=O)N[C@@H](CCCNC(=N)N)C(N)=O [Dansyl-YIR-amide] (Dansyl-Tyr-Ile-Arg-NH2) | 13
39 | CSCC[C@H](NC(=O)[C@H](CCCCN)NS(=O)(=O)c1cccc2c(N(C)C)cccc12)C(=O)N[C@@H](CCCNC(=N)N)C(N)=O [Dansyl-KMR-amide] (Dansyl-Lys-Met-Arg-NH2) | 25
40 | CN(C)c1cccc2c(S(=O)(=O)N[C@@H](Cc3ccc(O)cc3)C(=O)N[C@@H](CC(N)=O)C(=O)N[C@@H](CCCNC(=N)N)C(N)=O)cccc12 [Dansyl-YNR-amide] (Dansyl-Tyr-Asn-Arg-NH2) | 8

From patent US6960574B2, “Antagonists of RF-amide neuropeptides” (University of Florida, priority 2002, dated 2005)
